Laboratory results: US20130210907A1, “METHOD FOR PREVENTING OR TREATING ENTEROCHROMAFFIN CELL HYPERPLASIA-RELATED DISEASES BY QUERCETIN ADMINISTRATION” (HONG KONG BAPTIST UNIVERSITY, priority 2012, published 2013)

Tests used:
Format in all cases: in vivo, rat
PI-IBS rats [1] = assay: Mechanical stimuli (CRD)-induced 5-HT release: colonic 5-HT content with or without CRD
Experimental: (§1) 5-HT content in the colon tissue is assayed based on our previously reported procedure in Qi S D, Tian S L, Xu H X, Sung J J, Bian Z X. Quantification of luminally released serotonin in rat proximal colon by capillary electrophoresis with laser-induced fluorescence detection. Anal Bioanal Chem. 2009 April; 393(8):2059-66. Briefly, the colon segment is homogenized in 15% iced trichloroacetic acid; for 2 min and stored at 4° C. for 2 h. After centrifuge at 10,000 G for 15 min, the supernatant of each sample is filtered using 0.22 μm filters and extracted with diethyl ether for five times to remove the trichloroacetic acid. The prepared samples are added to derivatization solution (150 mM sodium tetraborate, 25% acetonitrile, 2 mM CFSE) and incubated for […] in dark at room temperature. The 5-HT content is analyzed by capillary electrophoresis with laser-induced fluorescence detection and expressed as nanogram per milligram (wet weight of tissue).
To determine whether mechanical stimuli (CRD) can induce colonic 5-HT release in PI-IBS rats, and whether Quercetin has effect on it, 5-HT content in colonic tissue is evaluated in rats with or without AWR test. The colon tissues for 5-HT content determination are collected from the rats from Example 1 and Example 2, and the methods for 5-HT content determination are followed as described in Example 2.

PI-IBS rats [2] = assay: Colonic tissue 5-HT content (capillary electrophoresis, laser-induced fluorescence); settings: 30 mg/kg i.g.
Experimental: (§2) Six groups of 5 rats are tested. The groups setting and treatments are as described in Example 1. Different from Example 1, AWR test are not applied to the rats in this experiment in order to obtain the basal data without CRD stimulus. After the last drug administration, a 6 cm proximal colon (1-2 cm from caecum) is collected and divided into 3 parts, the proximal is fixed in 4% paraformaldehyde and embedded in paraffin for EC cell staining; the middle part is collected for 5-HT content measurement and electron microscopic evaluation, and the distal part is for western blotting analysis.
as §1

PI-IBS rats [3] = assay: Colonic EC cell counting (silver staining); settings: 30 mg/kg i.g.
Experimental: as §2
Tissue sections (5-μm thick) are deparaffinized and rehydrated for silver staining. Briefly, sections are incubated with 5% ammoniacal silver solution for 4 h at room temperature, then 2 h in 56° C. and subsequently 12 h at room temperature in a dark humidified chamber. After rinsing with water, 5% sodium hyposulfite is added and the tissue sections are incubated for 5 min at room temperature. The brown to black silver precipitate in the cytoplasm of EC cells represents as a positive reaction. A researcher blinded to treatment counted 5 random fields at 200× magnifications for each section, and the number of EC cells per mm^2 of mucosa is quantified using Image J NIH software.

PI-IBS rats [4] = assay: Abdominal withdrawal reflex (AWR) test: pain threshold pressure to colorectal distension
Experimental: Sprague-Dawley male rats (Laboratory Animal Services Centre, The Chinese University of Hong Kong) aged 6 weeks with body weight around 220 g are used to develop PI-IBS model. Briefly, rats are fasted for 24 h, and deeply anesthetized with chloral hydrate (350 mg.kg^−1, i.p.). After induction of colitis by 2,4,6-trinitrobenzenesulfonic acid solution (TNBS, 5 mg/0.8 ml/rat, in 50% ethanol, 8 cm from anus) administration, the rats are allowed to recover for at least 4 weeks before use. The control rats are similarly administered with 0.8 ml saline instead of TNBS. Only the rats that have completely recovered from the initial inflammation and acquired visceral hypersensitivity are used as the PI-IBS rats.
6 groups of 12 rats are tested. Normal rats (Group 1) are treated with water. PI-IBS rats are randomly divided into 5 groups and orally treated with water (Group 2), Doxantrazole (mast cell stabilizer, 30 mg/kg/d, Group 3), and Quercetin (Group 4-6) at the dose of 5, 10, and 20 mg/kg/d, respectively. After 2 weeks daily drug administration, 5 rats in each group are used to measure pain threshold pressure by abdominal withdrawal reflex (AWR) test, and the remaining […] is used for electromyography (EMG) recording.
AWR test is performed as previously described in Al-Chaer E D, Kawasaki M, Pasricha P J. A new model of chronic visceral hypersensitivity in adult rats induced by colon irritation during postnatal development. Gastroenterology. 2000 November; 119(5):1276-85. Briefly, rats are lightly anesthetized with ether; a latex balloon is inserted into the descending colon. Rats are then allowed to recover for about 1 h. The tube of the balloon is connected via a Y-connector to a sphygmomanometer and colorectal distension is applied in increments of 5 mmHg until a visible contraction of the abdominal wall is observed by an investigator blinded to the treatment. The pain threshold pressure is defined as the intensity of colorectal distension (CRD) that elicited an observable AWR, i.e. a sudden and persistent abdominal muscle contraction with abdomen lift off the platform. The pain threshold pressure of all groups is recorded and repeated five times with intervals of at least 5 minutes for recovery. EMG recording are conducted as previously described in Tammpere A, Brusberg M, Axenborg J, Hirsch I, Larsson H, Lindstrom E. Evaluation of pseudo-affective responses to noxious colorectal distension in rats by manometric recordings. Pain. 2005 August; 116(3):220-6 and Li Z, Zhang X J, Xu H X, Sung J J, Bian Z X. Intracolonical administration of protease-activated receptor-2 agonists produced visceral hyperalgesia by up-regulating serotonin in the colon of rats. Eur J. Pharmacol. 2009 Mar. 15; 606(1-3):199-204. Firstly, a surgical operation is made to implant the electrodes into the left external abdominal oblique muscles 7 days before EMG recording. After the last drug administration, a flexible latex balloon is inserted into the rat descending colon, and the rats are allowed to accommodate for 1 h. CRD is initiated, and the EMG signal is amplified and filtered by Power Lab System. Graded colorectal distension (20, 40, 60, and 80 mmHg; 20 s duration; 2 min inter-stimulus interval) is carried out for total three cycles to each rat. The changes of area under the curve (AUC) are calculated using that during 20 s distension period over the 20 s baseline.

SMILES: O=C1c2ccccc2S(=O)(=O)c2cc(-c3nnn[nH]3)ccc21 [Doxantrazole, reference compound]
- 5-HT content of tissue, +CRD (PI-IBS rats [1]; 30 mg/kg i.g., after CRD): 2.62 ± 0.30 ng/mg
- 5-HT content of tissue, -CRD (PI-IBS rats [1]; 30 mg/kg i.g., without CRD): 5.75 ± 0.44^ ng/mg
- Decrease of colon tissue 5-HT content after CRD application (PI-IBS rats [1]; 30 mg/kg, p<0.05): ~54.4%
- Effect on colonic 5-HT content in PI-IBS rats (PI-IBS rats [2]): no marked effects
- 5-HT content (PI-IBS rats [2]; PI-IBS rats, colon): 5.75 ± 0.44^ ng/mg
- Effect on colonic EC cells number in PI-IBS rats (PI-IBS rats [3]): no marked effects
- EC cell density (PI-IBS rats [3]; PI-IBS rats, colon): 95 ± 10 Number/mm^2
- Pain threshold pressure, after treatment (PI-IBS rats [4]; 30 mg/kg i.g. daily, 2 weeks): 29 ± 1.2 mmHg
- Pain threshold pressure, before treatment (PI-IBS rats [4]; 30 mg/kg i.g. group, before treatment): 25 ± 1.3 mmHg
